{"source": "patent US20110257242A1", "about": "“3-PHENYL-3-METHOXYPYRROLIDINE DERIVATIVES AS MODULATORS OF CORTICAL CATECHOLAMINERGIC NEUROTRANSMISSION” (NSAB, FILIAL AF NEUROSEARCH SWEDEN AB, SVERIGE, priority 2008, published 2011)", "test_system": "MK-801 pre-treated rats", "assay": "Locomotor activity in MK-801 pre-treated rats (antipsychotic activity model)", "settings": "MK-801 0.7 mg/kg i.p., no test compound, recorded between 30 and 60 minutes"}
{"compound": "C[C@]12N[C@H](Cc3ccccc31)c1ccccc12", "note": "[MK-801]", "values": [{"measurement": "Locomotor activity, MK-801 alone", "result": 48068, "unit": "counts/30 min"}]}
